{"source": "PubChem BioAssay AID2060351", "about": "(Molecular Pharmacology Branch, DTP, NCI, 2025);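 further: spheroids exposed to compound for 7 days before readout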", "system": "521955-158-R7-J2-PDC spheroids, viability % test/control", "experiment": "Anticancer human tumor 521955-158-R7-J2-PDC patient-derived pancreatic carcinoma cell line growth inhibition [TAK]", "conditions": "spheroids with HUVEC and MSC; for IC50: curve of first compound; for viability, T/C: stronger effect = lower value", "description": "Combinatorial screen of targeted agents with TAK-243 and ipatasertib in multi-cell type tumor spheroids\nA high-throughput screen of multi-cell type tumor spheroids was designed to identify active combinations of targeted small molecules and TAK-243 or ipatasertib. Complex spheroids include a stromal component modeled by human endothelial cells (HUVEC) and fibroblasts modeled by human mesenchymal stem cells (MSCs). The concentration ranges selected for each drug and investigational agent were based upon clinically achievable concentrations if the clinical Cmax of the agent was known.\nCompounds. The drugs and investigational agents: TAK-243 (785004), ipatasertib (767898), everolimus (733504), selumetinib (741078), bortezomib (756655), trametinib (758246), ixazomib (758254), vemurafenib (761431), dabrafenib (764134), sapanisertib (764658), alpelisib (765974), and copanlisib (816437), were obtained from the National Cancer Institute (NCI) Developmental Therapeutics Program Chemical Repository. The FDA-approved anticancer drug set is available from the NCI Developmental Therapeutics Program. […] The stock solutions were prepared in dimethyl sulfoxide (DMSO, Sigma-Aldrich, St. Louis, MO, cat. D2650) at 800-fold the tested concentration and stored at -70 degrees C prior to their use. All drugs and investigational agents were tested over a range starting from a high concentration at or near the clinical Cmax and decreasing in half-log increments. If the clinical Cmax for an agent had not been determined, the highest concentration tested was 10 microM.\nNCI60 Cell Culture. NCI60 cell lines were obtained from the NCI Developmental Therapeutics Program Tumor Repository. For each lot of cells, the Repository performed Applied Biosystems AmpFLSTR Identifiler testing with PCR amplification to confirm consistency with the published Identifier STR profile for each cell line. Cells were kept in continuous culture for no more than 20 passages. The optimal seeding densities for each of the cell lines at each time point assessed were determined prior to performing the concentration response studies. Briefly, the NCI60 human tumor lines were grown as monolayers in RPMI 1640 medium supplemented with 10% FBS and 2 mmol/L L-glutamine.\nAn additional 2 lines were from the NCI60 cell line panel including melanomas, MALME-3M and SK-MEL-2. Pooled donor human umbilical vein endothelial cells (HUVEC, Lonza, cat. CC-2519) and human mesenchymal stem cells (hMSC, Lonza, cat. PT-2501) were purchased from Lonza (Walkersville, MD).\nPDMR cell lines were grown in complete medium (DC medium): Dulbecco's modified Eagle's medium (DMEM)/F12 supplemented with 5% fetal bovine serum (FBS), 2 mM L-glutamine, 100 U/mL penicillin and 100 µg/ml streptomycin, 0.4 µg/ml hydrocortisone, 10 ng/ml epidermal growth factor (EGF) recombinant human protein, 24 µg/mL adenine, and 0.1 mg/mL primocin. During culture from frozen stock vials, PDMR cells were cultured in the same medium containing 10 µM Y-27632 (see Table 3). The PDCs were cultured in complete DMEM/F12 media without 10 microM Y-27632 dihydrochloride for at least two passages prior to the screen. The pooled donor HUVEC and hMSC were cultured in endothelial cell growth medium 2 (PromoCell, Heidelberg, Germany, cat. C-22011) and mesenchymal stem cell growth medium 2 (PromoCell, cat. C-28009), respectively. For all experiments, HUVEC and hMSC were used at passages </=5.\nFor the pre-screen, cell seeding densities were determined from a titration spanning the range from 5,000 to 313 cells per well. The mct-spheroids including 60% malignant cells, 25% HUVEC and 15% MSC dispensed as a mixture into U-bottom Ultra-Low Attachment 384-well plates (Corning, NY)\nHigh-throughput Drug Combination Screening.\nPrior to their inoculation into 384-well plates, malignant cells, HUVEC, and hMSC were removed from T flasks using TrypLE express (Thermo Fisher Scientific, cat. 12605036) and harvested by centrifugation for 5 min at 233 x g. […]"}
{"smiles": "CC(C)CC(NC(=O)CNC(=O)c1cc(Cl)ccc1Cl)B1OC(=O)CC(CC(=O)O)(C(=O)O)O1", "note": "(stereo not given) + CC(C)NCC(C(=O)N1CCN(c2ncnc3c2C(C)CC3O)CC1)c1ccc(Cl)cc1", "values": [{"measurement": "IC50", "setting": "second compound 0.3 µM", "value": 38.8, "unit": "nM"}, {"measurement": "IC50", "setting": "second compound 0.949 µM", "value": 47.4, "unit": "nM"}, {"measurement": "IC50", "setting": "second compound 3 µM", "value": 42, "unit": "nM"}, {"measurement": "IC50", "setting": "second compound 9.49 µM", "value": 35, "unit": "nM"}, {"measurement": "IC50", "setting": "second compound 30 µM", "value": 33.3, "unit": "nM"}, {"measurement": "viability, T/C", "setting": "second compound 0.3 µM, first compound 0.000316 µM", "value": 103, "unit": "%"}, {"measurement": "viability, T/C", "setting": "second compound 0.3 µM, first compound 0.001 µM", "value": 71.9, "unit": "%"}, {"measurement": "viability, T/C", "setting": "second compound 0.3 µM, first compound 0.00316 µM", "value": 96.8, "unit": "%"}, {"measurement": "viability, T/C", "setting": "second compound 0.3 µM, first compound 0.01 µM", "value": 104, "unit": "%"}, {"measurement": "viability, T/C", "setting": "second compound 0.3 µM, first compound 0.0316 µM", "value": 60.1, "unit": "%"}, {"measurement": "viability, T/C", "setting": "second compound 0.3 µM, first compound 0.1 µM", "value": 3.16, "unit": "%"}, {"measurement": "viability, T/C", "setting": "second compound 0.949 µM, first compound 0.000316 µM", "value": 119, "unit": "%"}, {"measurement": "viability, T/C", "setting": "second compound 0.949 µM, first compound 0.001 µM", "value": 92.2, "unit": "%"}, {"measurement": "viability, T/C", "setting": "second compound 0.949 µM, first compound 0.00316 µM", "value": 87.6, "unit": "%"}, {"measurement": "viability, T/C", "setting": "second compound 0.949 µM, first compound 0.01 µM", "value": 103, "unit": "%"}, {"measurement": "viability, T/C", "setting": "second compound 0.949 µM, first compound 0.0316 µM", "value": 74.7, "unit": "%"}, {"measurement": "viability, T/C", "setting": "second compound 0.949 µM, first compound 0.1 µM", "value": 4.69, "unit": "%"}, {"measurement": "viability, T/C", "setting": "second compound 3 µM, first compound 0.000316 µM", "value": 85.6, "unit": "%"}, {"measurement": "viability, T/C", "setting": "second compound 3 µM, first compound 0.001 µM", "value": 90.8, "unit": "%"}, {"measurement": "viability, T/C", "setting": "second compound 3 µM, first compound 0.00316 µM", "value": 109, "unit": "%"}, {"measurement": "viability, T/C", "setting": "second compound 3 µM, first compound 0.01 µM", "value": 85.9, "unit": "%"}, {"measurement": "viability, T/C", "setting": "second compound 3 µM, first compound 0.0316 µM", "value": 64.8, "unit": "%"}, {"measurement": "viability, T/C", "setting": "second compound 3 µM, first compound 0.1 µM", "value": 5.79, "unit": "%"}, {"measurement": "viability, T/C", "setting": "second compound 9.49 µM, first compound 0.000316 µM", "value": 116, "unit": "%"}, {"measurement": "viability, T/C", "setting": "second compound 9.49 µM, first compound 0.001 µM", "value": 98.8, "unit": "%"}, {"measurement": "viability, T/C", "setting": "second compound 9.49 µM, first compound 0.00316 µM", "value": 82.7, "unit": "%"}, {"measurement": "viability, T/C", "setting": "second compound 9.49 µM, first compound 0.01 µM", "value": 86.4, "unit": "%"}, {"measurement": "viability, T/C", "setting": "second compound 9.49 µM, first compound 0.0316 µM", "value": 58.1, "unit": "%"}, {"measurement": "viability, T/C", "setting": "second compound 9.49 µM, first compound 0.1 µM", "value": 4.1, "unit": "%"}, {"measurement": "viability, T/C", "setting": "second compound 30 µM, first compound 0.000316 µM", "value": 95.1, "unit": "%"}, {"measurement": "viability, T/C", "setting": "second compound 30 µM, first compound 0.001 µM", "value": 105, "unit": "%"}, {"measurement": "viability, T/C", "setting": "second compound 30 µM, first compound 0.00316 µM", "value": 88.7, "unit": "%"}, {"measurement": "viability, T/C", "setting": "second compound 30 µM, first compound 0.01 µM", "value": 80.9, "unit": "%"}, {"measurement": "viability, T/C", "setting": "second compound 30 µM, first compound 0.0316 µM", "value": 52.4, "unit": "%"}, {"measurement": "viability, T/C", "setting": "second compound 30 µM, first compound 0.1 µM", "value": 2.42, "unit": "%"}]}
